Reference: ChEMBL document CHEMBL1142763, “Dibenzodioxocinones--a new class of CETP inhibitors” (Bioorg Med Chem Lett, 2005)
pIC50: −log10 of the molar value.

What was measured:
[1] = molecular target: T1, Cholesteryl ester transfer protein (Homo sapiens, UniProt P11597); assay: Inhibitory concentration against Cholesterol ester transfer protein (CETP) in CETP fluorescence assay
T1 sequence (P11597 whole entry): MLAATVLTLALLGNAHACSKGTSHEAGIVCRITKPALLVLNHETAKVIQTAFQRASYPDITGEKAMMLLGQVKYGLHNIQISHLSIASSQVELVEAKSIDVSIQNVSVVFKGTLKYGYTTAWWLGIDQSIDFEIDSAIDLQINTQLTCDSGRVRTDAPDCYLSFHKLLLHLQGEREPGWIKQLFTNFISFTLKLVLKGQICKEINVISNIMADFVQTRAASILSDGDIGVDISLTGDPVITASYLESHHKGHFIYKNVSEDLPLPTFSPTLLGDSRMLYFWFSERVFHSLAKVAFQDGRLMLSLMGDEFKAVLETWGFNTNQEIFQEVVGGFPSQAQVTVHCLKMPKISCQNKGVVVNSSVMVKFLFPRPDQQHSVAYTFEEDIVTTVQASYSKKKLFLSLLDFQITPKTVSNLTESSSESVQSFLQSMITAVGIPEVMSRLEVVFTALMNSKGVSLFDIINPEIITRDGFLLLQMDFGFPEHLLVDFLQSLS

[2] = (§1) Half life period […] determined in rat plasma; type: ADME, cell-free
[3] = as §1; type: ADME, organism-based

Compound	pIC50 [1]	half-life [2] [h]	half-life [3] [h]
COc1c(C(O)CC(C)C)ccc2c1C(=O)Oc1cc(C)cc(OCCC(C)C)c1O2 (racemic)	5.70		
CCN(CC)C(=O)Oc1cc(C)cc2c1Oc1ccc([C@@H](O)CC(C)C)c(OC)c1C(=O)O2	5.52		
COc1c([C@@H](O)CC(C)(C)C)ccc2c1C(=O)Oc1c(Cl)c(C)c(C)c(OC(=O)C3(C)C4CCC3CC4)c1O2 (some centres not stated)	7.52		
COc1c([C@@H](O)CC(C)(C)C)ccc2c1C(=O)Oc1c(Cl)c(C)c(Br)c(OC(=O)C3(C)C4CCC3CC4)c1O2 (some centres not stated)	7.49		
COc1c([C@@H](O)CC(C)C)ccc2c1C(=O)Oc1c(Cl)c(C)c(Br)c(OC(=O)C3(C)C4CCC3CC4)c1O2 (some centres not stated)	7.22	> 3	
COc1c([C@@H](O)CC(C)C)ccc2c1C(=O)Oc1cc(C)cc(OC(=O)C3(C)CC4C=CC3C4)c1O2 (some centres not stated)	6.70	0.64	
COc1c([C@@H](O)CC(C)C)ccc2c1C(=O)Oc1cc(C)cc(OS(=O)(=O)C(F)(F)F)c1O2	5.00		
COc1c([C@@H](O)CC(C)C)ccc2c1C(=O)Oc1cc(C)cc(OCc3ccccc3)c1O2	4.89		
COc1c(C(O)C(C)C)ccc2c1C(=O)Oc1cc(C)cc(OCCC(C)C)c1O2 (racemic)	5.40		
COc1c([C@@H](O)CC(C)C)ccc2c1C(=O)Oc1cc(C)cc(OC(=O)N3CC4CCC4C3)c1O2 (some centres not stated)	6.40		
CCCCCS(=O)(=O)Oc1cc(C)cc2c1Oc1ccc([C@@H](O)CC(C)C)c(OC)c1C(=O)O2	5.40		
COc1c([C@@H](O)CC(C)C)ccc2c1C(=O)Oc1cc(C)cc(OS(=O)(=O)c3c(F)cc(F)cc3F)c1O2	5.22		
COc1c([C@@H](O)CC(C)C)ccc2c1C(=O)Oc1cc(C)cc(OC(=O)C(C)(C)C)c1O2	6.10		< 0.1
COc1c([C@@H](O)CC(C)C)ccc2c1C(=O)Oc1cc(C)cc(OC(=O)[N+]34CCC(CC3)C4)c1O2	6.70		3.9
COc1c([C@@H](O)CC(C)C)ccc2c1C(=O)Oc1c(Cl)c(C)c(C)c(OC(=O)C3(C)C4CCC3CC4)c1O2 (some centres not stated)	7.52	> 3	
COc1c([C@@H](O)CC(C)C)ccc2c1C(=O)Oc1cc(C)cc(O)c1O2	< 4.70		
COc1c(C(O)CC(C)(C)C)ccc2c1C(=O)Oc1cc(C)cc(OCCC(C)C)c1O2 (racemic)	5.82		
COc1c([C@@H](O)CC(C)C)ccc2c1C(=O)Oc1cc(C)cc(OC(=O)C3CC4C=CC3C4)c1O2 (some centres not stated)	6.70	< 0.1	
COc1c(C(O)CC2CC2)ccc2c1C(=O)Oc1cc(C)cc(OCCC(C)C)c1O2 (racemic)	5.00		
COc1c([C@@H](O)CC(C)C)ccc2c1C(=O)Oc1cc(C)cc(OS(=O)(=O)C(C)C)c1O2	6.15		
CCc1c(C)c(Cl)c2c(c1OC(=O)C1(C)C3CCC1CC3)Oc1ccc([C@@H](O)CC(C)(C)C)c(OC)c1C(=O)O2 (some centres not stated)	7.82		
COc1c([C@@H](O)CC(C)C)ccc2c1C(=O)Oc1cc(C)cc(OC(=O)N3CCCC3)c1O2	6.10		2.9
COc1c(C(O)CCC(C)C)ccc2c1C(=O)Oc1cc(C)cc(OCCC(C)C)c1O2 (racemic)	< 4.70		
COc1c([C@@H](O)CC(C)C)ccc2c1C(=O)Oc1cc(C)cc(OCC3CCCC3)c1O2	5.82		
COc1c([C@@H](O)CC(C)C)ccc2c1C(=O)Oc1cc(C)cc(OC(=O)C3(C)C4CCC3CC4)c1O2 (some centres not stated)	6.70	4.2	
COc1c([C@@H](O)CC(C)C)ccc2c1C(=O)Oc1cc(C)cc(OC(=O)N(C(C)C)C(C)C)c1O2	6.15		> 5
COc1c([C@@H](O)CC(C)C)ccc2c1C(=O)Oc1cc(C)cc(OC(=O)C3CCCC3)c1O2	6.22		
COc1c(C(O)CC2CCCCC2)ccc2c1C(=O)Oc1cc(C)cc(OCCC(C)C)c1O2 (racemic)	< 4.70		
